Values after ≈ are worked out from the molar mass of the structure shown.
What was measured:
[1] = result in words, compared with 20(S)-camptothecin; cited from earlier work
SF-268 = test: In vitro activity after 1 hour exposure (Sulforhodamine B); format: cell-based; conditions: Homo sapiens
Experimental: (§1) 6. In vitro activity after 1 hour exposure:
(§2) Grow the cells in 15 ml of Complete Medium (RPM1-1640 with 10% Fetal bovine serum and 0.2% NaHCO3) for 3-5 days to obtain a cell number of 10^6 cells/flask. The medium is removed and the attached cells are washed with Phosphate Buffered Saline (PBS). 1 ml of 0.1% Trypsin-EDTA is added and incubated for 5 min at 37°C. Tap the flasks gently and add 5 ml of complete medium. Remove cell suspension and centrifuge at 2000 rpm for 5 min. Discard the supernatant and suspend the pellet in 5 ml of complete medium. Count the cell number in a haemocytometer. Dilute the cell suspension to 10,000 cells/100 µl in complete medium. Plate out 100 µl of cell suspension in each of 96 well microtitre plate and incubate for 24 hrs at 37°C. and 5% CO2. Terminate the reference blank (plated out separately) with 25 µl of 50% cold Trichloroacetic acid (TCA). Incubate for 1 hour at 4°C. Wash the plate (five times) with deionized water. Air dry and preserve the plate at 4°C. for determination of T0 value. Prepare suitable dilution of the test compound in complete medium and add 100 µl to each well to maintain the final concentration ranging between 10^-4M and 10^-8M. Incubate for 1 hr at 37°C. and 5% CO2. Centrifuge the microtitre plate at 1000 rpm for 5 min. Remove the supernatant. Wash the cells twice with 100 µl of PBS to remove the traces of test compound. Add 200 µl of complete medium to each well and incubate for 48 hours at 37°C. and 5% CO2. Terminate the cell growth with the addition of 50 µl of 50% cold TCA. Incubate the plate for 1 hr at 4°C. Wash the plates with deionized water (five times) and air dry. Add 100 µl of Sulforhodamine B solution (0.4% in 1% acetic acid) to each well. Keep at room temperature for 15 minutes. Wash (five times) with 1% acetic acid and air dry. Add 100 µl of 10mM Trizma base (Sigma), shake gently on plate shaker for 15 minutes and read the optical density at 490 nm in Spectrophotometric plate reader. (as per the protocol followed by the U.S. National Cancer Institute.

UACC-62 = test: as above; format: cell-based; conditions: Homo sapiens; UACC-62, 1 hour exposure then 48 hours drug-free
Experimental: as §1, §2

ACHN [2] = test: as above; format: cell-based; conditions: Homo sapiens, 1 hour exposure then 48 hours drug-free
Experimental: as §1, §2

DU-145 = test: as above; format: cell-based; conditions: Homo sapiens; DU-145, 1 hour exposure then 48 hours drug-free
Experimental: as §1, §2

HOP-62 = test: as above; format: cell-based; conditions: Homo sapiens; HOP-62, 1 hour exposure then 48 hours drug-free
Experimental: as §1, §2

OVCAR-8 = test: as above; format: cell-based; conditions: Homo sapiens; OVCAR-8, 1 hour exposure then 48 hours drug-free
Experimental: as §1, §2

MCF-7/ADR = test: as above; format: cell-based; conditions: Homo sapiens, NCI/ADR-RES, 1 hour exposure then 48 hours drug-free
Experimental: as §1, §2

Pharmacokinetics at MTD = format: in vivo, Swiss albino mice; conditions: mouse, ip, intraperitoneal, plasma
Experimental: 3. Pharmacokinetics at MTD:
All studies were carried out in Swiss albino mice in the weight range 35-40 g. The animals were fasted overnight prior to dosage of the drug and were fed 3 hours after dosing. The animals were dosed intraperitonially as a solution in DMSO:water (50:50; v/v). Blood samples were drawn from orbital sinus at 1, 2, 4, 6 and 8 hours after administration of the dose into heparinized tubes, centrifuged at 13000 RPM for 10 min. Plasma samples were separated and analyzed by HPLC. To 50 µl of the sample, 100 µl of chilled acidified methanol was added and mixed to precipitate proteins. The sample was centrifuged at 13,000 RPM for 10 min. 100 µl of supernatant was made up to 200 µl with methanol:water (50:50; v/v) and 100 µl was injected on HPLC. Peak area of the drug was used for quantification. Calibration, control and recovery samples were prepared by spiking 50 µl of blank plasma with known amounts of the drug and processed in the same manner as the samples. (J. Natl. Cancer Inst., 1996; 88:817-824).

[3] = MTD in Swiss albino mice (single dose); conditions: mouse, in vivo, 14 days observation
Experimental: 1. MTD in Swiss albino mice:
Each Swiss Albino mouse is injected with a single does of the test compound on a day designated as Day 1: Doses that were tested are 400, 200, 100, 50, 25, 12.5, 8.3, 6.25 and 3.13 mg/kg body weight. […] (As per the protocol followed by the U.S. National Cancer Institute)

[4] = test system: NCI's 60 human tumor cell line assay; test: cells; format: cell-based; conditions: 60 cell, 48 h, read-out: IC50 (mean GI50 against NCI's 60 human tumor cell line assay)
Experimental: (§3) Each test compound was screened against a battery of 60 human cell lines obtained from eight organs. In a typical procedure, the cell suspensions that were diluted according to the particular cell type and the expected target cell density (5000-40,000 cells per well based on cell growth characteristics) were added into 96-well microtiter plates. Inoculates were allowed a preincubation period of 24h at 37°C. for stabilization. Dilutions at twice the intended test concentrations were added at time zero in 100-µl aliquots to microtiter plate wells. Usually test compounds were evaluated at five 10-fold dilutions. The highest well concentration used in the test is 10^-4M. The cells are then incubated in the presence of drug (the test compound) for further 48h in 5% CO2 atmosphere and 100% humidity. At the end of this time, the adherent cells are fixed to the plate by means of trichloroacetic acid, and after a number of washes, the cell layer is treated with the protein stain Sulforhodamine B. The optical density which is proportional to protein mass, is then read by automated spectrophotometric plate readers at a wavelength of 515 nm. Readings are transferred to a microcomputer and final reports are generated using especially developed software.

[5] = Solubility by HPLC method; format: physicochemical; conditions: aqueous buffer, 0.1M sodium acetate buffer pH 5.0, 24 hours, room temperature
Experimental: 4. Solubility by HPLC method:
Excess of compound was soaked in 0.5 ml of 0.1M sodium acetate buffer at pH 5.0 for 24 hours at room temperature. The solution was filtered through 0.45 micron PVDF syringe filter (Gelman Sciences). The filtrate was injected into HPLC at different volumes (10 & 20 µl). Chromatograms were recorded. Responses recorded were extrapolated from the calibration curve and the solubility of the compound was calculated. (J. Med. Chem., 1995; 38: 400)

[6] = Solubility by routine method; format: physicochemical; conditions: deionized water, 37°C
Experimental: 5. Solubility by routine method:
Compound was suspended in 5 ml of deionized water and heated to 37°C. for 10 min. Then, the solution was filtered and the filtrate was evaporated to drying using methanol and the solid residue was weighed.

MOLT 4 = test: NCI in vitro 60 human tumor cell line assay; format: cell-based; conditions: MOLT-4, 48 h, read-out: Total Growth Inhibition (TGI)
Experimental: as §3

SF 295 = test: NCI in vitro 60 human tumor cell line assay; format: cell-based; conditions: SF-295, 48 h, read-out: Total Growth Inhibition (TGI)
Experimental: as §3

U 251 = test: NCI in vitro 60 human tumor cell line assay; format: cell-based; conditions: U-251, 48 h, read-out: Total Growth Inhibition (TGI)
Experimental: as §3

HT 29 = test: NCI in vitro 60 human tumor cell line assay; format: cell-based; conditions: Homo sapiens, HT-29, 48 h, read-out: Total Growth Inhibition (TGI)
Experimental: as §3

MCF 7 = test: NCI in vitro 60 human tumor cell line assay; format: cell-based; conditions: MCF7, 48 h, read-out: Total Growth Inhibition (TGI)
Experimental: as §3

COLO 205 = test: NCI in vitro 60 human tumor cell line assay; format: cell-based; conditions: COLO 205, 48 h, read-out: Total Growth Inhibition (TGI)
Experimental: as §3

HCC 2998 = test: NCI in vitro 60 human tumor cell line assay; format: cell-based; conditions: Homo sapiens, HCC 2998, 48 h, read-out: Total Growth Inhibition (TGI)
Experimental: as §3

T 47D = test: NCI in vitro 60 human tumor cell line assay; format: cell-based; conditions: T47D, 48 h, read-out: Total Growth Inhibition (TGI)
Experimental: as §3

SN12C = test: NCI in vitro 60 human tumor cell line assay; format: cell-based; conditions: 48 h, read-out: Total Growth Inhibition (TGI)
Experimental: as §3

H 226 = test: NCI in vitro 60 human tumor cell line assay; format: cell-based; conditions: NCI-H226, 48 h, read-out: Total Growth Inhibition (TGI)
Experimental: as §3

BT 549 = test: NCI in vitro 60 human tumor cell line assay; format: cell-based; conditions: BT-549, 48 h, read-out: Total Growth Inhibition (TGI)
Experimental: as §3

HOP 92 = test: NCI in vitro 60 human tumor cell line assay; format: cell-based; conditions: HOP-92, 48 h, read-out: Total Growth Inhibition (TGI)
UO 31 = test: NCI in vitro 60 human tumor cell line assay; format: cell-based; conditions: UO-31, 48 h, read-out: Total Growth Inhibition (TGI)
Experimental: as §3

H 322M = test: NCI in vitro 60 human tumor cell line assay; format: cell-based; conditions: NCI-H322M, 48 h, read-out: Total Growth Inhibition (TGI)
Experimental: as §3

A 498 = test: NCI in vitro 60 human tumor cell line assay; format: cell-based; conditions: A498, 48 h, read-out: Total Growth Inhibition (TGI)
Experimental: as §3

MCF 7/ ADR = test: NCI in vitro 60 human tumor cell line assay; format: cell-based; conditions: Homo sapiens, NCI/ADR-RES, 48 h, read-out: Total Growth Inhibition (TGI)
Experimental: as §3

H 460 = test: NCI in vitro 60 human tumor cell line assay; format: cell-based; conditions: Homo sapiens, NCI-H460, 48 h, read-out: Total Growth Inhibition (TGI)
Experimental: as §3

786-O = test: NCI in vitro 60 human tumor cell line assay; format: cell-based; conditions: 786-0, 48 h, read-out: Total Growth Inhibition (TGI)
Experimental: (§4) Each test compound was screened against a battery of 60 human cell lines obtained from eight organs. In a typical procedure, the cell suspensions that were diluted according to the particular cell type and the expected target cell density (5000-40,000 cells per well based on cell growth characteristics) were added into 96-well microtiter plates. Inoculates were allowed a preincubation period of 24h at 37°C. for stabilization. Dilutions at twice the intended test concentrations were added at time zero in 100-µl aliquots to microtiter plate wells. Usually test compounds were evaluated at five 10-fold dilutions. The highest well concentration used in the test is 10^-4M. The cells are then incubated in the presence of drug (the test compound) for further 48h in 5% CO2 atmosphere and 100% humidity. At the end of this time, the adherent cells are fixed to the plate by means of trichloroacetic acid, and after a number of washes, the cell layer is treated with the protein stain Sulforhodamine B. The optical density which is proportional to protein mass, is then read by automated spectrophotometric plate readers at a wavelength of 515 nm.

H 23 = test: NCI in vitro 60 human tumor cell line assay; format: cell-based; conditions: NCI-H23, 48 h, read-out: Total Growth Inhibition (TGI)
Experimental: as §3

ACHN [7] = test: NCI in vitro 60 human tumor cell line assay; format: cell-based; conditions: 48 h, read-out: Total Growth Inhibition (TGI)
Experimental: as §3

MDA-MB-435 = test: NCI in vitro 60 human tumor cell line assay; format: cell-based; conditions: MDA-MB-435, 48 h, read-out: Total Growth Inhibition (TGI)
CAKI = test: NCI in vitro 60 human tumor cell line assay; format: cell-based; conditions: 48 h, read-out: Total Growth Inhibition (TGI)
Experimental: as §3

H 522 = test: NCI in vitro 60 human tumor cell line assay; format: cell-based; conditions: NCI-H522, 48 h, read-out: Total Growth Inhibition (TGI)
Experimental: as §3

MDA-N = test: NCI in vitro 60 human tumor cell line assay; format: cell-based; conditions: BREAST, 48h, read-out: Total Growth Inhibition (TGI)
Experimental: as §4

RXF 393 = test: NCI in vitro 60 human tumor cell line assay; format: cell-based; conditions: RXF 393, 48 h, read-out: Total Growth Inhibition (TGI)
Experimental: as §3

KM 12 = test: NCI in vitro 60 human tumor cell line assay; format: cell-based; conditions: KM12, 48 h, read-out: Total Growth Inhibition (TGI)
Experimental: as §3

HCT 116 = test: NCI in vitro 60 human tumor cell line assay; format: cell-based; conditions: HCT-116, 48 h, read-out: Total Growth Inhibition (TGI)
HCT 15 = test: NCI in vitro 60 human tumor cell line assay; format: cell-based; conditions: HCT-15, 48 h, read-out: Total Growth Inhibition (TGI)
Experimental: as §3

KD 488 = test: In vitro activity against AIDS related Lymphoma (ARL) cell lines (NCI protocol); format: cell-based; conditions: Homo sapiens, KD 488, ARL cell line

5-hydroxymethyl camptothecin
anti-tumor activity [1]: reduced anti-tumor activity

CCOC1c2cc3c(O)cccc3nc2-c2cc3c(c(=O)n21)COC(=O)[C@]3(O)CC (stereo partly shown) [Example 11, 5-Ethoxy-9-hydroxycamptothecin]
GI50 (SF-268): 6 µM | GI50 (UACC-62): 40 µM | GI50 (ACHN [2]): 0.55 µM | GI50 (DU-145): 0.35 µM | GI50 (HOP-62): 6 µM | GI50 (OVCAR-8): 4.5 µM | GI50 (MCF-7/ADR): 1.5 µM | AUC(0-t) (Pharmacokinetics at MTD; DMSO:water (50:50), read-out: AUC0-1): 18.5 ± 2.1 µM·h | Cmax (Pharmacokinetics at MTD): 6.95 ± 1.2 µM | Tmax (Pharmacokinetics at MTD): 1 h | half-life (Pharmacokinetics at MTD): 1.92 ± 0.4 h | k el (Pharmacokinetics at MTD): 0.000103 s⁻¹ | MTD at 336 h ([3]; intravenous): 100 mg/kg | MTD at 336 h ([3]; ip, intraperitoneal): 400 mg/kg | mean GI50 [4]: 6.68 µM | solubility at 24 h [5]: 170 µg/mL (≈ 416 µM) | solubility at 10 min [6]: < 1000 µg/mL

CC[C@@]1(O)C(=O)OCc2c1cc1n(c2=O)C(OCC(F)(F)F)c2cc3ccccc3nc2-1 (stereo partly shown) [Example 25, 5-trifluoroethoxycamptothecin]
IC (TGI) (MOLT 4): 3 µM | IC (TGI) (SF 295): 2.15 µM | mean GI50 [4]: 1.82 µM | IC (TGI) (U 251): 3.57 µM | IC (TGI) (HT 29): 7.9 µM | IC (TGI) (MCF 7): 9.2 µM

CC[C@@]1(O)C(=O)OCc2c1cc1n(c2=O)C(OCC(F)(F)F)c2cc3c([N+](=O)[O-])cccc3nc2-1 (stereo partly shown) [Example 28, 9-Nitro-5-trifluoroethoxycamptothecin]
IC (TGI) (COLO 205): 9.48 µM | IC (TGI) (HCC 2998): 7.65 µM | IC (TGI) (T 47D): 1.09 µM | IC (TGI) (SN12C): 2.31 µM | IC (TGI) (H 226): 4.3 µM | IC (TGI) (BT 549): 32 µM | IC (TGI) (HOP 92): 8.44 µM | mean GI50 [4]: 0.46 µM | IC (TGI) (UO 31): 1.23 µM | IC (TGI) (H 322M): 30.2 µM | IC (TGI) (A 498): 1.76 µM | IC (TGI) (MCF 7/ ADR): 1.21 µM | IC (TGI) (H 460): 1.22 µM | IC (TGI) (786-O): 0.85 µM | IC (TGI) (H 23): 0.76 µM | IC (TGI) (ACHN [7]): 0.37 µM | IC (TGI) (MDA-MB-435): 11.4 µM | IC (TGI) (CAKI): 0.75 µM | IC (TGI) (H 522): 13 µM | IC (TGI) (HT 29): 7.94 µM | IC (TGI) (MDA-N): 13.4 µM | IC (TGI) (RXF 393): 15.9 µM | IC (TGI) (KM 12): 27.4 µM | IC (TGI) (HCT 116): 8.01 µM | IC (TGI) (HCT 15): > 30 µM

CCc1c2c(nc3ccccc13)-c1cc3c(c(=O)n1C2OCCO)COC(=O)[C@]3(O)CC (stereo partly shown) [Example 32, 5-(2'-Hydroxyethoxy)-7-ethylcamptothecin]
IC (TGI) (KD 488; 48 h): 2.28 µM | GI50 (KD 488): 0.246 µM

CC=c1c2cc3ccccc3nc2c2cc3c(c(=O)n12)COC(=O)[C@]3(O)CC [formula 11]
anti-tumor activity [1]: anti-tumor activity comparable to that of 20(S)-camptothecin

— patent publication EP0847397B1, “WATER-SOLUBLE C-RING ANALOGUES OF 20 (S)-CAMPTOTHECIN” (DR. REDDY'S RESEARCH FOUNDATION, priority 1996, dated 1997)
